Reference: PubChem BioAssay (NCI)
Several values for one entry are separate records, joined by “and”; a condition that tells them apart may be missing. Identical values can stand only once.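 Cells were grown in 96-well plates and exposed to each compound for 48 hours at five concentrations; endpoints were interpolated linearly between bracketing concentrations, or set to the highest concentration if not reached. GI50: concentration for 50% inhibition of growth. TGI: total growth inhibition.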

Legend:
Test in all cases: inhibition of tumour cell growth, NCI panel, 48 h
[1] = system: HCT-15 colon
[2] = system: HT29 colon
[3] = system: IGROV1 ovarian
[4] = system: K-562 leukemia
[5] = system: OVCAR-3 ovarian
[6] = system: SF-295 CNS
[7] = system: SF-539 CNS
[8] = system: SK-MEL-2 melanoma
[9] = system: SK-MEL-5 melanoma
[10] = system: SK-OV-3 ovarian

Compound | GI50 [1] | TGI [1] | GI50 [2] | TGI [2] [µM] | GI50 [3] | TGI [3] [µM] | GI50 [4] | TGI [4] [µM] | GI50 [5] | TGI [5] | GI50 [6] | TGI [6] | GI50 [7] | TGI [7] | GI50 [8] | TGI [8] | GI50 [9] | TGI [9] | GI50 [10] | TGI [10] [µM]
Cc1cc(N2CCCC2)nc(N(CCCNc2ccnc3cc(Cl)ccc23)Cc2ccc3c(c2)OCO3)n1 | 0.805 µM | 5.82 µM | 0.541 µM | 2.83 | 1.38 µM | 4.33 | 0.218 µM | 1.86 | 1.06 µM | 2.87 µM | 1.16 µM | 2.89 µM | 1.23 µM | 2.6 µM | 1.84 µM | 4 µM | 1.53 µM | 2.9 µM | 4.98 µM | 20.3
COC(=O)C(Cc1nc2ccc(Cl)cc2[nH]c1=O)C(=O)C(=O)Nc1ccccc1[N+](=O)[O-] (stereo not given) | – | > 100 µM | – | > 100 | – | > 100 | – | > 100 | – | > 100 µM | – | > 100 µM | – | > 100 µM | – | > 100 µM | – | > 100 µM | – | > 100
CC(C)(Br)C(=O)/C=C/c1ccccc1 | – | 4.63 µM | – | 18.3 | – | 1.79 | – | > 100 | – | 25.4 µM | – | > 53.6 µM | – | 25.6 µM | – | 3.96 µM | – | 27.5 µM | – | > 83.1
O=C(Cc1ccccc1)N/N=C(\C1=Nc2ccc([N+](=O)[O-])cc2NC1O)C(O)c1ccc([N+](=O)[O-])cc1 (stereo not given) | – | > 100 µM | – | > 100 | – | > 100 | – | > 100 | – | > 100 µM | – | > 100 µM | – | > 100 µM | – | > 100 µM | – | > 100 µM | – | > 100
CCCCCc1c(C)[nH]c(/C=C2\N=C(c3ccc[nH]3)C=C2Oc2ccc(Cl)cc2)c1C | 0.0779 µM and 0.0287 µM | 1.46 µM and 1.05 µM | 0.0402 µM and 0.028 µM | 18.3 | 0.204 µM and 0.129 µM | 50.9 | 0.0485 µM and 0.0367 µM | > 100 | 0.107 µM and 0.0342 µM | 0.516 µM and 0.45 µM | 0.17 µM and 0.0832 µM | 0.57 µM and 1.1 µM | 0.125 µM and 0.0406 µM | 0.992 µM and 0.474 µM | 0.0578 µM and 0.0293 µM | 0.23 µM and 0.108 µM | 0.027 µM and 0.0234 µM | 0.0762 µM and 0.0818 µM | 0.308 µM and 0.277 µM | 17.6
C/C=C(/CCCCNCCCC)[Si](C)(C)C | – | 30 µM | – | 14.7 | – | 37 | – | 45 | – | 28.3 µM | – | 29.2 µM | – | 28.4 µM | – | 33.1 µM | – | 26.6 µM | – | 33.6
CCOC(=O)c1cnn(-c2ccnc3c(C(F)(F)F)cccc23)c1N | > 100 µM | > 100 µM | > 100 µM | > 100 | > 100 µM | > 100 | > 100 µM | > 100 | > 100 µM | > 100 µM | > 100 µM | > 100 µM | > 100 µM | > 100 µM | > 100 µM | > 100 µM | > 100 µM | > 100 µM | > 100 µM | > 100
COc1cc2cc(Oc3ccc(NC(=O)c4ccc(Cl)c(C(F)(F)F)c4)cc3)c(C)nc2cc1OC | 12.3 µM | > 100 µM | 10.3 µM | > 100 | 35.5 µM | > 100 | 9.14 µM | > 100 | 7.94 µM | 54 µM | 2.28 µM | 25.7 µM | 41.3 µM | > 100 µM | 18.3 µM | 51.1 µM | 10.6 µM | 27.1 µM | 66 µM | > 100
Fc1ccc(Nc2nc(NCCNc3ccnc4cc(Cl)ccc34)nc(N3CCOCC3)n2)cc1 | 2.46 µM | 6.56 µM | 2.27 µM | 5.77 | 6.3 µM | 21.4 | 2.91 µM | 10.3 | 11.9 µM | 24.5 µM | 4.19 µM | 15.3 µM | 3.79 µM | 15.2 µM | 2.2 µM | 4.51 µM | 2.15 µM | 4.62 µM | 11.9 µM | 24.6
CN(C)c1ccc(N=Nc2c([O-])ccc3ccccc23)cc1.[C-]#[O+].[C-]#[O+].[Ir] | 18.5 µM | 34.9 µM | 28.5 µM | > 73.1 | 17.9 µM | 52.7 | 29.4 µM | > 100 | 20.7 µM | 45.6 µM | > 100 µM | > 100 µM | 16.3 µM | 25.6 µM | 23.8 µM | 48.2 µM | 24.9 µM | > 57.7 µM | > 100 µM | > 100
CCN1C(=O)N(CC)C2C1NN=c1s/c(=C3\C(=O)N(C)c4ccccc43)c(=O)n12 (stereo not given) | 0.536 µM | > 100 µM | 0.562 µM | > 100 | 0.891 µM | 43.7 | 0.352 µM | > 100 | 0.382 µM | 8.18 µM | 0.999 µM | > 28.8 µM | 0.545 µM | 3.77 µM | 3.06 µM | > 100 µM | 0.837 µM | > 89.2 µM | 6.03 µM | > 100
CC(C)OC(=O)c1ccc2[nH]c(O)c(C(=Nc3ccc(N(C)C(=O)CN4CCN(C)CC4)cc3)c3ccccc3)c2c1 | 0.372 µM | 1.52 µM | 0.28 µM | 3.83 | 0.0764 µM | 1.24 | 0.0435 µM | 2.06 | 0.55 µM | 2.02 µM | 1.19 µM | 2.47 µM | 0.318 µM | 1.16 µM | 0.898 µM | 2.72 µM | 0.541 µM | 1.8 µM | 0.308 µM | 1.34
CN(C)C(=O)C1CCC(=C2C(=O)OC(C)(C)OC2=O)N1C (stereo not given) | – | > 100 µM | – | > 100 | – | > 100 | – | > 100 | – | > 100 µM | – | > 100 µM | – | > 100 µM | – | > 100 µM | – | > 100 µM | – | > 100
C=C(N=[N+]=[N-])c1cn(C2CC(O)C(CO)O2)c(=O)[nH]c1=O (stereo not given) | – | > 100 µM | – | > 100 | – | > 100 | – | > 100 | – | > 100 µM | – | > 100 µM | – | > 100 µM | – | > 100 µM | – | > 100 µM | – | > 100
